Results from article PMC5855801, “Benzothiophenone Derivatives Targeting Mutant Forms of Estrogen Receptor-α in Hormone-Resistant Breast Cancers” (International Journal of Molecular Sciences, 2018).

Tests used:
[1] = tested on: ERα binding to the pS2 enhancer; test: Chromatin immunoprecipitation (ChIP) in MCF7 cells; type: cell-based, human; conditions: MCF7, 6 μM, 24 h, 1 nM E2, compared to E2 alone
Procedure: To test this hypothesis, we performed chromatin immunoprecipitation (ChIP) assays in MCF7 cells. The cells were treated for 24 h with vehicle and E2 either alone or in combination with VPC-16606.
E2-deprived MCF7 cells (1 × 10^7 cells per 10 cm plate) were treated for 24 h with DMSO alone, DMSO + E2 or compound + E2. One percent formaldehyde was added for 10 min at room temperature to perform DNA-protein crosslinking and quenched by treatment with 125 mM glycine for 5 min. Cell lysates sonicated with Sonic Dismembrator 550 instrument (Thermo Fisher Scientific, Waltham, MA, USA) to yield DNA fragments of 200–1000 bp in size. Lysates (from 3.3 × 10^6 cells) were immunoprecipitated with […] of anti-ERα antibody or […] of rabbit isotype control IgG (Santa Cruz Biotechnology, Dallas, TX, USA) using the EZ-ChIP chromatin immunoprecipitation kit (Millipore, Billerica, MA, USA). Bound DNA was quantified by qPCR (SYBR Green master mix, Invitrogen, Carlsbad, CA, USA) using the following primer sets: pS2 enhancer, forward 5′-[…]-3′ and reverse 5′-AGGGCGTGACACCAGGAAA-3′; GAPDH promoter, forward 5′-[…]-3′ and reverse 5′-TCGAACAGGAGCAGA GAGCGA-3′. The qPCR results are presented as fold enrichment of PCR amplification over control IgG antibody and normalized based on the total input (no precipitated chromatin). Primers for the GAPDH promoter were used as a negative control.

[2] = tested on: pS2, PR, Cyclin D1 and CDC2 proteins; test: Western blotting in MCF7 cells; type: cell-based, human; conditions: MCF7, 24 h, effect at higher doses
Procedure: Serum-starved MCF7 and TamR3 cells were seeded onto a six-well plate at a density of 6 × 10^5 cells/well and treated the following day with VPC-16606 in the presence of 1 nM E2. One micromolar OHT was used as the positive control. After 24 h, cells were lysed in 1× radioimmunoprecipitation assay (RIPA) buffer. Twenty five micrograms of protein were loaded into SDS-PAGE gels and transferred to PVDF membranes. Membranes were incubated with pS2, PR Cyclin D1 and CDC2 antibodies or control α-actin antibody. Bound antibodies were detected using HRP-conjugated secondary antibodies. Chemiluminescence was detected with an Amersham ECL detection kit (GE Healthcare Life Sciences, Chicago, IL, USA), and bands were visualised using the G:BOX imager (Syngene, Cambridge, UK).

[3] = molecular target: T1, glucocorticoid receptor (GR) (Homo sapiens, UniProt P04150); test: Luciferase reporter selectivity assay in PC3 cells, GR; type: cell-based; conditions: 24 h
T1 construct: expressed in transfected cells; host or cells: PC3
T1 sequence (P04150 1-777): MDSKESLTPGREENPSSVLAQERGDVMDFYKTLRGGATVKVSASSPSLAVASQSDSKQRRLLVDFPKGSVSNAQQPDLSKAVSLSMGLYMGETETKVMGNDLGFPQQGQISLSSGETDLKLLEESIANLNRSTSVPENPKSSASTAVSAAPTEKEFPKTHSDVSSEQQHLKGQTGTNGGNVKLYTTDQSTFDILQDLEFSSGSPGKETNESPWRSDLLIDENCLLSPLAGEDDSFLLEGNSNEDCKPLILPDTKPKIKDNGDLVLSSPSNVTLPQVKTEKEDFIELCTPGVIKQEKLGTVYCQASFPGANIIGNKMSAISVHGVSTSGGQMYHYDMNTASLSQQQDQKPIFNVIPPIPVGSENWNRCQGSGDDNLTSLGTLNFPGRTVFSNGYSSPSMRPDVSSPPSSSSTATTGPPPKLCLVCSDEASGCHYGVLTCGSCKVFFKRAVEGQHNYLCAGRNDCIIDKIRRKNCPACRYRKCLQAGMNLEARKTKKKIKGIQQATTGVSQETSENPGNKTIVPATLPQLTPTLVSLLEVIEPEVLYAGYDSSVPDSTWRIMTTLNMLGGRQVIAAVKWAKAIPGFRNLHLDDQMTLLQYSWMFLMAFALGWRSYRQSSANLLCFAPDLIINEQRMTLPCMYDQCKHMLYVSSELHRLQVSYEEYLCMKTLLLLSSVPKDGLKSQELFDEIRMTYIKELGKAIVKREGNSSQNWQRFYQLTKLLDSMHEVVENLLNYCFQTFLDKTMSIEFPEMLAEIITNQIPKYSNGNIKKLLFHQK
Procedure: Figure 4 Further activity profile of VPC-16606. (A,B) Chromatin immunoprecipitation (ChIP) analysis of ERα binding to the pS2 enhancer, or the GAPDH promoter, in MCF7 cells. Where indicated, ERα was stimulated with 1 nM E2 or dimethyl sulfoxide (DMSO) alone, and the compound was administered at a 6 μM concentration. Sheared chromatin-protein complexes were precipitated with the ERα antibody, reverse cross-linked and analyzed by quantitative PCR. The results are normalized as fold enrichment over precipitation with a rabbit isotype control IgG antibody for each condition tested. Error bars indicate standard error of the mean (SEM) for 3 independent experiments performed in triplicates. Fold enrichment from the compound tested condition (ERα antibody) was statistically compared against DMSO + E2 with a two-tailed t-test (unpaired) *** indicates p-value <0.001. (C) Specificity of VPC-16606 was evaluated in the luciferase reporter assay. PC3 cells were transfected with plasmids expressing androgen receptor (AR), progesterone receptor (PR) or glucocorticoid receptor (GR) along with their responsive luciferase reporter constructs bearing androgen response element (ARE), progesterone response element (PRE) or glucocorticoid response element (GRE), respectively. […] Y-axis represents relative luminescence (RLU) after normalizing to constitutive renilla reporter. […]

CC(=O)N(/N=C1\Sc2c(C)cccc2C1=O)c1ccccc1Cl [VPC-16606]
ERα pull down of the promoter of pS2 (ChIP) [1]: significantly reduced | Expression of pS2, PR, Cyclin D1 and CDC2 proteins (Western blot) [2]: decreased expression | Effect on GR activity (luciferase) ([3]; 50 µM): some effect | Effect on GR activity (luciferase) ([3]; doses up to 25 µM): does not affect the activity
